According to patent US20150274719A1, “AMINO-SUBSTITUTED IMIDAZO[1,2-A]PYRIDINECARBOXAMIDES AND THEIR USE” (BAYER PHARMA AKTIENGESELLSCHAFT, priority 2012, published 2015):

Molecular target: T1, recombinant guanylate cyclase reporter cell line (Rattus norvegicus, UniProt P19686+P20595)
T1 construct: expressed in transfected cells; host or cells: recombinant reporter cell line
T1 sequence (P19686 1-690): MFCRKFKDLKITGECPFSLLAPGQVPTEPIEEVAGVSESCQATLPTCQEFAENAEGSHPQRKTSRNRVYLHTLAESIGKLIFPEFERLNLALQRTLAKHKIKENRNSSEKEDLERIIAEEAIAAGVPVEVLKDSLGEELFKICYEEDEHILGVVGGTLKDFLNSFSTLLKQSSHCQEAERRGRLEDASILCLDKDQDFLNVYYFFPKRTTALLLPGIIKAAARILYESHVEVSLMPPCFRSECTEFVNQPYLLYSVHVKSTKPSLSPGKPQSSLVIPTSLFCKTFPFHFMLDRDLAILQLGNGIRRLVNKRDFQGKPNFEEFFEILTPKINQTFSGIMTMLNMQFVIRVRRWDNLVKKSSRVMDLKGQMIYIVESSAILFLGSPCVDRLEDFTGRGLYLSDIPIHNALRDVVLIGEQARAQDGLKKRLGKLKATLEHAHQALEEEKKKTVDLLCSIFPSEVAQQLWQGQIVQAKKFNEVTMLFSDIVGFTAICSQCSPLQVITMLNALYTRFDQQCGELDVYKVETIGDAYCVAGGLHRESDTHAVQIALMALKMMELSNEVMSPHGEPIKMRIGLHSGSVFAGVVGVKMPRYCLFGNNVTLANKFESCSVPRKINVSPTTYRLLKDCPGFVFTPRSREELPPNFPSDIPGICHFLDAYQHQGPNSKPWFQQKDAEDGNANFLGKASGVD
T1 sequence (P20595 1-619): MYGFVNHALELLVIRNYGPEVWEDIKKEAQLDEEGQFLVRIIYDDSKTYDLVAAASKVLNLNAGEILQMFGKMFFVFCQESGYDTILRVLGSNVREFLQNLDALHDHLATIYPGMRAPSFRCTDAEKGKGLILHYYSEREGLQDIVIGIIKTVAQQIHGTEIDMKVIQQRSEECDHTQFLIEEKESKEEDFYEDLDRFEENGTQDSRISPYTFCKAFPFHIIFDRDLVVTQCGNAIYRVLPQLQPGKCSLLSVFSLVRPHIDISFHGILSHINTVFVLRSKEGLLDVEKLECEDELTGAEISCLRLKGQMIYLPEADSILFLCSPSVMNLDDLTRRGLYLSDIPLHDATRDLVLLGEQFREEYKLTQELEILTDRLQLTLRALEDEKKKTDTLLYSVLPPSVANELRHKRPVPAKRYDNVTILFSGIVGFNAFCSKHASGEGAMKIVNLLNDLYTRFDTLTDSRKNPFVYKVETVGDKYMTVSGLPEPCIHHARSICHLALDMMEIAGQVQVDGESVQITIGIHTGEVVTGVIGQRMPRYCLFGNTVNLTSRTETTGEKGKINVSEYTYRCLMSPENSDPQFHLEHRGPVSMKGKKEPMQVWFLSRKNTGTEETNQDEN
Experiment: Action on recombinant guanylate cyclase reporter cell line
Format: cell-based
Details: in some cases mean values from individual determinations
In short: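 Each compound is applied to a cell line engineered with a reporter for recombinant guanylate cyclase. The minimal effective concentration is then noted, in part as a mean across separate determinations.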

Structure (SMILES) | MEC (minimal effective concentration) [µM]
Cc1nc2c(OCc3c(F)cccc3F)cccn2c1C(=O)NCCN(C(C)C)C(C)C [Example 88, 8-[(2,6-difluorobenzyl)oxy]-N-[2-(diisopropyl-amino)ethyl]-2-methylimidazo[1,2-a]pyridine-3-carboxamide] | 1.00
Cc1nc2c(OCc3c(F)cccc3F)cc(Cl)cn2c1C(=O)NCC1CCCCN1 (single isomer, unassigned; ent-6) [Example 191, ent-6-Chloro-8-[(2,6-difluorobenzyl)oxy]-2-methyl-N-(piperidin-2-ylmethyl)imidazo[1,2-a]-pyridine-3-carboxamide] | 1.00
Cc1nc2c(OCc3c(F)cccc3F)cccn2c1C(=O)NC1CNCc2ccccc21 (single isomer, unassigned; ent-8) [Example 110, ent-8-[(2,6-difluorobenzyl)oxy]-2-methyl-N-(1,2,3,4-tetrahydroisoquinolin-4-yl)imidazo[1,2-a]pyridine-3-carboxamide] | 0.30
Cc1nc2c(OCc3c(F)cccc3F)cccn2c1C(=O)NC(CN)CCCC(F)(F)F (single isomer, unassigned; enantiomer b) [Example 6, ent-N-(1-Amino-6,6,6-trifluorohexan-2-yl)-8-[(2,6-difluorobenzyl)oxy]-2-methylimidazo[1,2-a]-pyridine-3-carboxamide (Enantiomer B)] | 0.23
Cc1nc2c(OCc3c(F)cccc3F)cccn2c1C(=O)NC(CN)CC(F)(F)F (racemic) [Example 2, rac-N-(1-Amino-4,4,4-trifluorobutan-2-yl)-8-[(2,6-difluorobenzyl)oxy]-2-methylimidazo[1,2-a]-pyridine-3-carboxamide] | 0.65
Cc1nc2c(OCc3c(F)cccc3F)cccn2c1C(=O)NC(C)(C)C(C)(C)N [Example 141, N-(3-Amino-2,3-dimethylbutan-2-yl)-8-[(2,6-difluorobenzyl)oxy]-2-methylimidazo[1,2-a]pyridine-3-carboxamide] | 3.00
CCC(C)(N)CNC(=O)c1c(C)nc2c(OCc3c(F)cccc3F)cc(Cl)cn12 (racemic) [Example 157, rac-N-(2-amino-2-methylbutyl)-6-chloro-8-[(2,6-difluorobenzyl)oxy]-2-methylimidazo[1,2-a]-pyridine-3-carboxamide] | 0.30
Cc1nc2c(OCc3c(F)cccc3F)cccn2c1C(=O)NCC(C)(C)N(C)C [Example 145, 8-[(2,6-difluorobenzyl)oxy]-N-[2-(dimethylamino)-2-methylpropyl]-2-methylimidazo[1,2-a]pyridine-3-carboxamide] | 3.00
Cc1nc2c(OCc3c(F)cccc3F)cc(Cl)cn2c1C(=O)NC(C)C1CCN(C)CC1 (racemic) [Example 78, rac-6-chloro-8-[(2,6-difluorobenzyl)oxy]-2-methyl-N-[1-(1-methylpiperidin-4-yl)ethyl]-imidazo[1,2-a]pyridine-3-carboxamide] | 1.00
CCCC[C@H](CN1CCN(C)CC1)NC(=O)c1c(C)nc2c(OCc3c(F)cccc3F)cccn12 [Example 67, ent-8-[(2,6-difluorobenzyl)oxy]-2-methyl-N-[(2R)-1-(4-methylpiperazin-1-yl)hexan-2-yl]imidazo[1,2-a]pyridine-3-carboxamide] | 0.30

Second part, the compound after the results:

MEC (minimal effective concentration) [µM] | Structure (SMILES)
0.10 | CSCCC(N)CNC(=O)c1c(C)nc2c(OCc3c(F)cccc3F)cc(C)cn12 (racemic) [Example 412, rac-N-[2-amino-4-(methylsulfanyl)butyl]-8-[(2,6-difluorobenzyl)oxy]-2,6-dimethylimidazo[1,2-a]pyridine-3-carboxamide]
0.30 | Cc1cc(OCc2c(F)cccc2F)c2nc(C)c(C(=O)NC3CCC(N)C3)n2c1 (single isomer, unassigned) [Example 309, ent-N-(3-aminocyclopentyl)-8-[(2,6-difluorobenzyl)oxy]-2,6-dimethylimidazo[1,2-a]pyridine-3-carboxamide]
0.30 | Cc1cc(OCc2c(F)cccc2F)c2nc(C)c(C(=O)NCC3CCc4ccccc4N3)n2c1 (racemic) [Example 235, rac-8-[(2,6-Difluorobenzyl)oxy]-2,6-dimethyl-N-(1,2,3,4-tetrahydroquinolin-2-ylmethyl)imidazo-[1,2-a]pyridine-3-carboxamide]
1.00 | COCC(C)(N)CNC(=O)c1c(C)nc2c(OCc3c(F)cccc3F)cccn12 (racemic) [Example 213, rac-N-(2-Amino-3-methoxy-2-methylpropyl)-8-[(2,6-difluorobenzyl)oxy]-2-methylimidazo[1,2-a]-pyridine-3-carboxamide]
0.30 | Cc1cc(OCc2c(F)cccc2F)c2nc(C)c(C(=O)NCC3CS(=O)(=O)CCN3)n2c1 (racemic) [Example 414, rac-8-[(2,6-difluorobenzyl)oxy]-N-[(1,1-dioxidothiomorpholin-3-yl)methyl]-2,6-dimethylimidazo[1,2-a]pyridine-3-carboxamide]
0.3 | CCC(C)(N)CNC(=O)c1c(C)nc2c(OCc3c(F)cccc3F)cc(C(F)F)cn12 (single isomer, unassigned; enantiomer a) [Example 288, ent-N-(2-amino-2-methylbutyl)-8-[(2,6-difluorobenzyl)oxy]-6-(difluoromethyl)-2-methylimidazo[1,2-a]pyridine-3-carboxamide (Enantiomer A)]
0.10 | CCCC(C)(N)CNC(=O)c1c(C)nc2c(OCc3c(F)cccc3F)cc(C)cn12 (racemic) [Example 232, rac-N-(2-Amino-2-methylpentyl)-8-[(2,6-difluorobenzyl)oxy]-2,6-dimethylimidazo[1,2-a]pyridine-3-carboxamide]
3.00 | CCCC(C)(N)CNC(=O)c1c(C)nc2c(OCc3ccccc3Br)cc(C)cn12 (stereo not drawn) [Example 353, N-(2-amino-2-methylpentyl)-8-[(2-bromobenzyl)oxy]-2,6-dimethylimidazo[1,2-a]pyridine-3-carboxamide]
0.10 | Cc1nc2c(OCc3c(F)cccc3F)cccn2c1C(=O)NCC(C)(N)CCOCc1ccccc1 (single isomer, unassigned; enantiomer b) [Example 267, ent-N-[2-Amino-4-(benzyloxy)-2-methylbutyl]-8-[(2,6-difluorobenzyl)oxy]-2-methylimidazo[1,2-a]pyridine-3-carboxamide (Enantiomer B)]
0.30 | COCC(C)(N)CNC(=O)c1c(C)nc2c(OCc3c(F)cccc3F)cc(C)cn12 (single isomer, unassigned) [Example 199, ent-N-(2-Amino-3-methoxy-2-methylpropyl)-8-[(2,6-difluorobenzyl)oxy]-2,6-dimethylimidazo-[1,2-a]pyridine-3-carboxamide]
0.3 | CCCC(C)(N)CNC(=O)c1c(C)nc2c(OCc3c(F)cccc3F)cc(C(F)F)cn12 (single isomer, unassigned; enantiomer b) [Example 290, ent-N-(2-amino-2-methylpentyl)-8-[(2,6-difluorobenzyl)oxy]-6-(difluoromethyl)-2-methyl-imidazo[1,2-a]pyridine-3-carboxamide (Enantiomer B)]
0.30 | Cc1cc(OCc2c(F)cccc2F)c2nc(C)c(C(=O)NCC(N)c3ccc(C)o3)n2c1 (racemic) [Example 369, rac-N-[2-amino-2-(5-methyl-2-furyl)ethyl]-8-[(2,6-difluorobenzyl)oxy]-2,6-dimethylimidazo[1,2-a]pyridine-3-carboxamide]
0.30 | Cc1cc(OCc2c(F)cccc2F)c2nc(C)c(C(=O)NC(CN)c3ccc(C#N)cc3)n2c1 (stereo not drawn) [Example 398]
0.10 | Cc1nc2c(OCc3c(F)cccc3F)cccn2c1C(=O)NCC(C)(N)CC(C)C (racemic) [Example 202, rac-N-(2-Amino-2,4-dimethylpentyl)-8-[(2,6-difluorobenzyl)oxy]-2-methylimidazo[1,2-a]pyridine-3-carboxamide]
